Data as given in patent US8901337B2, “Metal complexes having dual histone deacetylase inhibitory and DNA-binding activity” (Royal College of Surgeons in Ireland, priority 2009, dated 2014).

Experiments:
[1] = test system: caspase-9 activation in A2780 P cells; test: Caspase-9 assay, A2780 P; type: cell-based, human; conditions: 72 hr, IC50 and IC75, FIG. 22
Method: (§1) Both floating and attached cells were collected by centrifugation. Cells, at a density of 1.5×10^6 cells/ml were washed with PBS and then re-suspended in chilled cell lysis buffer (supplied in the Caspase-3 colourimetric assay kit, Calbiochem, UK). Cells were incubated on ice for 10 min and then centrifuged for 1 min at 10,000 g. The cytosolic fraction (supernatant) was collected into a fresh tube and 50 μl (2 mg/ml) of each protein sample was transferred to a 96 well plate and diluted with lysis buffer. A 50 μl aliquot of X2 reaction buffer, containing 10 mM DTT was added, followed by 5 μl of 4 mM DEVD-pNA substrate to give a final concentration of 200 μM. The plate was then incubated at 37° C. for 1-2 h. OD was determined at 400 nm using an Anthos HT-II microtitreplate reader. The fold increase in caspase-3 and -9 activities was determined by comparing results to that obtained with un-induced control.

[2] = test system: caspase-9 activation in A2780 cisR cells; test: Caspase-9 assay, A2780 cisR; type: cell-based, human; conditions: 72 hr, IC50 and IC75, FIG. 23
Method: as §1

A2780 P cells = test: Inhibition of DNA synthesis, BrdU incorporation assay, A2780 P; type: cell-based, human; conditions: 72 hr, FIG. 18
Method: DNA synthesis was determined using 5-bromo-2-deoxyuridine (BrdU) colourimetric incorporation assay.^18 A2780 P and A2780 cisR cells were seeded into 96 well plates and allowed to adhere overnight. All test agents were added and incubated for 72 hr prior to the addition of BrdU (10 μM per well). Plates were then incubated at 37° C. for 4 h and incorporation was quantified by ELISA (Calbiochem).

[3] = test system: caspase-3 activation in A2780 cisR cells; test: Caspase-3 colourimetric assay, A2780 cisR; type: cell-based, human; conditions: 72 hr, IC50 and IC75, FIG. 21
Method: as §1

[4] = test system: DNA in CH1 cells (lymphoma); test: Pt binding to DNA in cultured cells (ICP-MS), CH1; type: cell-based; conditions: 43 μM of Pt complexes, 2 hours of cell treatment
Method: Pt DNA binding of Pt complexes was measured in SW480 cells (colon cancer) and CH1 cells (lymphoma) or alternatively A2780 P and A2780 cisR cells (sensitive and resistant to cisplatin respectively). The cells were seeded in 60 mm tissue culture dishes with 10 ml of their respective medium. After overnight incubation the medium was removed and replaced with 10 ml of the respective medium containing a platinum complex giving a final concentration of 43 or 40 μM depending on the experiment. The cells were incubated with a given Pt complex for either 2 or 4 h depending on the experiment. The cells were trypsinised and centrifuged. The supernantant was removed and the cells washed twice with 1×PBS and centrifuged. The pellet was re-suspended in DNA buffer to which Proteinase K (20 mg/mL) and 10% SDS were added. After a gentle shake and incubation at 45° C. for two hours, RNAse (100 mg/mL) was added and the cells were incubated at 37° C. overnight. The volume of supernatant was noted and an equal volume of phenol was added.
The resulting mixture was shook for 10 min, then centrifuged for 10 min at 10° C. The supernatant was transferred into a new centrifuge tube (15 ml) and the volume was noted. […] The absorbance of the DNA by was measured by UV spectrophotometry at 260 nm and 280 nm and the concentration of DNA calculated. Platinum bound to DNA was determined by ICP-MS.

[5] = test system: closed circular supercoiled pUC19 plasmid DNA; test: DNA unwinding, agarose gel mobility shift assay; type: binding; conditions: 37° C., 48 h, range of concentrations
Method: Platinum compounds, such as cisplatin, that unwind the DNA duplex reduces the number of supercoils in closed circular DNA so that their number decreases. This decrease upon binding of unwinding agents causes a decrease in the rate of migration of DNA through agarose gel. Unwinding of closed circular supercoiled pUC19 plasmid DNA incubated with cis-[Pt^II(NH3)2(malSAHA−2H)] was assayed by an agarose gel mobility shift assay. Samples of plasmid DNA were incubated with platinum complexes at 37° C. in the dark for 48 h. All samples were subjected to electrophoresis on 1% native agarose gel running at 25° C. with TAE buffer and the voltage set at 25 V. The gels were then stained with EtBr, followed by photography with transilluminator.^16

HDAC1 = molecular target: T1, HDAC1 (Homo sapiens, UniProt Q13547); test: Cayman HDAC1 Inhibitor Screening Assay Kit (fluorescence); type: biochemical
T1 construct: purchased Cayman Chemicals, Ann Arbor, USA
Method: The assay provides a fast two-step fluorescence-based method for measuring HDAC activity. Briefly, in the first step an acetylated lysine residue was incubated with HDAC1 and potential inhibitors. Deacetylation sensitises the substrate so that treatment with the HDAC developer in the second step releases a fluorescent product. The fluorescent reaction product was analysed using a plate reader with an excitation wavelengths of 350 nm and emission wavelengths of 460 nm.

T1 sequence (Q13547 whole entry): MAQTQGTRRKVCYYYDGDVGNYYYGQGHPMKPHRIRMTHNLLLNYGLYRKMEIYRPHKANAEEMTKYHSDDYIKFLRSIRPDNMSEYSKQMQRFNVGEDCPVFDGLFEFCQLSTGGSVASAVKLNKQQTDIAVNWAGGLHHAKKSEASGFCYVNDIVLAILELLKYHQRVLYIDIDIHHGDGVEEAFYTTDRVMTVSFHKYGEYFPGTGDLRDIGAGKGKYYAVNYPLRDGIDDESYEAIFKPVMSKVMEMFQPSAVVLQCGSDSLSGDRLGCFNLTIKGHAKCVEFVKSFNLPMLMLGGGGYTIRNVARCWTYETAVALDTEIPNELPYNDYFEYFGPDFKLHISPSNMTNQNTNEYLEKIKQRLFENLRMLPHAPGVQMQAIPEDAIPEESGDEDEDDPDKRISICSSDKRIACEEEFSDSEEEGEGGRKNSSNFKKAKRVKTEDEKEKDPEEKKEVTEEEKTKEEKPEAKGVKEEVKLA

[NH2][Pt]1([NH2])[O]C(=O)C(Cc2ccc(NS(=O)(=O)c3ccc(/C=C/C(=O)NO)cc3)cc2)C(=O)[O]1 [cis-[Pt(NH3)2(malBel−2H)], cis-[Pt(NH3)2(malBel−2H)].1.5H2O]
caspase-9 activity [1]: an increase in both Caspase-3 and -9 activities | caspase-9 activity [2]: an increase in both Caspase-3 and -9 activities | effect on DNA synthesis, BrdU incorporation (A2780 P cells): dose-dependant decrease in DNA synthesis | caspase-3 activity [3]: an increase in both Caspase-3 and -9 activities

N.N.[Cl][Pt][Cl] [cisplatin, cis-[Pt^II(NH3)2Cl2], reference compound]
DNA-bound Pt in CH1 [4]: 10.5 · 10^−15 moles of Pt/μg of DNA

[NH2][Pt]1([NH2])[O]C(=O)C(Cc2ccc(NC(=O)CCCCCCC(=O)NO)cc2)C(=O)[O]1 [cis-[Pt(NH3)2(malSAHA−2H)], cis-[Pt(NH3)2(malSAHA−2H)].3H2O]
unwinding of negatively supercoiled pUC19 plasmid DNA (DNA binding) [5]: can induce unwinding in negatively supercoiled pUC19 plasmid DNA | inhibition of HDAC1 (in words) (HDAC1): inhibit HDAC1 | IC50 (HDAC1; read-out: IC50 against HDAC I at 200 μM, at 200 μM): 1140 nM
